Experimental data from patent publication US20260242353A1, “HETEROARYL DERIVATIVES AS DDRs INHIBITORS” (CHIESI FARMACEUTICI S.P.A., priority 2022, published 2026).

Assays:
DDR1 = molecular target: T1, DDR1 (Homo sapiens, UniProt Q08345); test: LanthaScreen Europium Kinase Binding assay, DDR1; conditions: 5 nM DDR1, 20 nM Kinase Tracer 178, 1 h at rt; Ki from IC50 by Cheng-Prusoff; read-out: Ki DDR1
T1 construct: purchased Carna Biosciences
Procedure, shortened: (§1)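 Compounds were incubated 1 h at rt with 5 nM DDR1 plus 20 nM Kinase Tracer 178, or 5 nM DDR2 plus 10 nM tracer, and 2 nM Eu anti-GST antibody in HEPES pH 7.5 buffer. Read-out was the TR-FRET 665/615 nm ratio. IC50 came from a 4-parameter fit and was converted to Ki by Cheng-Prusoff.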

DDR2 = molecular target: T2, DDR2 (Homo sapiens, UniProt Q16832); test: LanthaScreen Europium Kinase Binding assay, DDR2; conditions: 5 nM DDR2, 10 nM Kinase Tracer 178, 1 h at rt; Ki from IC50 by Cheng-Prusoff; read-out: Ki DDR2
T2 construct: purchased Life Technologies
T2 sequence (Q16832 22-855): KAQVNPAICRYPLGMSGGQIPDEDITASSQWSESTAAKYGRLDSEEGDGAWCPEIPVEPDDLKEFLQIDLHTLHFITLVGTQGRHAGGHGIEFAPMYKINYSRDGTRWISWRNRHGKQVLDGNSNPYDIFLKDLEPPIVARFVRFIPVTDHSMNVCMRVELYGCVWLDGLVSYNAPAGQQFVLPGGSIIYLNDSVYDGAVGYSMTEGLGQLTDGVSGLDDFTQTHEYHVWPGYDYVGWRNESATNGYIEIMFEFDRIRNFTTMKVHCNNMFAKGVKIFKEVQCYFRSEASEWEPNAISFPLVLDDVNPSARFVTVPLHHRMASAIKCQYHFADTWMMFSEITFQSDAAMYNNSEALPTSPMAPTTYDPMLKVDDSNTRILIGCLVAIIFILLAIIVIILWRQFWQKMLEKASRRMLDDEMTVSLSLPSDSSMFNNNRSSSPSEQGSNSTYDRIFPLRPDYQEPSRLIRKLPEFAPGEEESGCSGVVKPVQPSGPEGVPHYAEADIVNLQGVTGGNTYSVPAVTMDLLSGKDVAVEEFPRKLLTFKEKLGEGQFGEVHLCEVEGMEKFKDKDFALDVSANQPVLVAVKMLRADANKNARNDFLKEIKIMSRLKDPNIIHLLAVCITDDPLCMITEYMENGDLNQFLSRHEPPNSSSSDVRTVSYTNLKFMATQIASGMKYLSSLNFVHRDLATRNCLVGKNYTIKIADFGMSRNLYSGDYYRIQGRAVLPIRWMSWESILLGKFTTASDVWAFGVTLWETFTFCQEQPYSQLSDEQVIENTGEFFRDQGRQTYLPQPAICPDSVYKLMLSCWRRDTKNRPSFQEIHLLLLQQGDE
Procedure, shortened: as §1

T1 sequence (Q08345 19-913): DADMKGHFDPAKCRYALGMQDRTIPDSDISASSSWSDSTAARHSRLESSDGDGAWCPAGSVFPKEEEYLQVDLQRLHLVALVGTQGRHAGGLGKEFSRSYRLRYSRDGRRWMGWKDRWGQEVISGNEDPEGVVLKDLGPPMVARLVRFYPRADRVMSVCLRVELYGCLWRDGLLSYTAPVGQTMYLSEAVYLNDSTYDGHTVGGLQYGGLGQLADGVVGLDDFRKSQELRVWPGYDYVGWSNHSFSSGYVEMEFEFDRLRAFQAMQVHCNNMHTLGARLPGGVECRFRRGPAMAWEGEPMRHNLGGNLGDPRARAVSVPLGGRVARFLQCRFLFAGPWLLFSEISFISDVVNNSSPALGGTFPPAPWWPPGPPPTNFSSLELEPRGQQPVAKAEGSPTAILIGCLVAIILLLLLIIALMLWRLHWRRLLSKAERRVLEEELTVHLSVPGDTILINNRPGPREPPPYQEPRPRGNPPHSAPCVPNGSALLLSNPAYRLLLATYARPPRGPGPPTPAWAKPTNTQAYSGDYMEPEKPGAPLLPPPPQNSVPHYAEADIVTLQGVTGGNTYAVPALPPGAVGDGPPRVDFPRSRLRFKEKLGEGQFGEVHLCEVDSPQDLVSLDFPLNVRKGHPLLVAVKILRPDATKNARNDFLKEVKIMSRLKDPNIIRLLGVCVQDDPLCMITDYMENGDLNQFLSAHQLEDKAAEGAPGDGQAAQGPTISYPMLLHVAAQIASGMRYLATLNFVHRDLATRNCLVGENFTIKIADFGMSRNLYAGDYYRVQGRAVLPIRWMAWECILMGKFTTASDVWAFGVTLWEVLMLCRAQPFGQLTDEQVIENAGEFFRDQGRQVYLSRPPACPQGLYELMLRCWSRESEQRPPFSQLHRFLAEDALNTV

Row | Compound | Ki (DDR1) [nM] | Ki (DDR2) [nM]
1 | Cc1ccc(C(=O)Nc2cc(C(C)(C)C(F)(F)F)on2)cc1[C@@H]1CCN(c2cnccn2)C1 [Example 58, (S)-4-methyl-3-(1-(pyrazin-2-yl)pyrrolidin-3-yl)-N-(5-(1,1,1-trifluoro-2-methylpropan-2-yl)isoxazol-3-yl)benzamide] | < 5 | < 5
2 | Cc1ccc(C(=O)Nc2cncc(C(F)(F)F)c2)cc1[C@@H]1CCN(c2cnc3ccc(CN4CCOCC4)cn23)C1 [Example 77, (S)-4-methyl-3-(1-(6-(morpholinomethyl)imidazo [1,2-a]pyridin-3-yl)pyrrolidin-3-yl)-N-(5-(trifluoromethyl)pyridin-3-yl)benzamide] | < 5 | 5 to 25
3 | Cc1ccc(C(=O)Nc2cncc(C(F)(F)F)c2)cc1[C@@H]1CCN(c2ccnc(C(N)=O)c2)C1 [Example 63, (S)-4-(3-(2-methyl-5-((5-(trifluoromethyl)pyridin-3-yl)carbamoyl)phenyl)pyrrolidin-1-yl)picolinamide] | < 5 | < 5
4 | CC(=O)Nc1ncc(N2CC[C@@H](c3cc(C(=O)Nc4cncc(C(F)(F)F)c4)ccc3C)C2)cn1 [Example 130, (S)-3-(1-(2-acetamidopyrimidin-5-yl)pyrrolidin-3-yl)-4-methyl-N-(5-(trifluoromethyl)pyridin-3-yl)benzamide] | < 5 | 5 to 25
5 | Cc1ccc(C(=O)Nc2cncc(C(F)(F)F)c2)cc1[C@@H]1CCN(c2ncnc3sccc23)C1 [Example 106, (S)-4-methyl-3-(1-(thieno[2,3-d]pyrimidin-4-yl)pyrrolidin-3-yl)-N-(5-(trifluoromethyl)pyridin-3-yl)benzamide] | 5 to 25 | 5 to 25
6 | Cc1ccc(C(=O)Nc2cncc(C(F)(F)F)c2)cc1C1CCN(c2cnn3cccnc23)C1 (stereo in doubt) [Example 90, 4-methyl-3-[(3R)-1-pyrazolo[1,5-a]pyrimidin-3-ylpyrrolidin-3-yl]-N-[5-(trifluoromethyl)-3-pyridyl]benzamide] | < 5 | 5 to 25
7 | Cc1ccc(C(=O)Nc2cncc(C(F)(F)F)c2)cc1[C@@H]1CCN(c2cnn(C)c2C(N)=O)C1 [Example 65, (S)-1-methyl-4-(3-(2-methyl-5-((5-(trifluoromethyl)pyridin-3-yl)carbamoyl)phenyl)pyrrolidin-1-yl)-1H-pyrazole-5-carboxamide] | < 5 | 5 to 25
8 | Cc1ccc(C(=O)Nc2cncc(C(F)(F)F)c2)cc1[C@@H]1CCN(c2cnc3[nH]ncc3c2)C1 [Example 43, 4-methyl-3-[(3S)-1-(1H-pyrazolo[3,4-b]pyridin-5-yl)pyrrolidin-3-yl]-N-[5-(trifluoromethyl)-3-pyridyl]benzamide] | < 5 | < 5
9 | Cc1ccc(C(=O)Nc2cncc(C(F)(F)F)c2)cc1[C@@H]1CCN(c2ncnc3cc(C(=O)N4CCN(C)CC4)sc23)C1 [Example 126, (S)-4-methyl-3-(1-(6-(4-methylpiperazine-1-carbonyl)thieno[3,2-d]pyrimidin-4-yl)pyrrolidin-3-yl)-N-(5-(trifluoromethyl)pyridin-3-yl)benzamide] | < 5 | 5 to 25
10 | Cc1ccc(C(=O)Nc2cc(C(C)(C)C(F)(F)F)on2)cc1[C@H]1CCN(c2cncc(-c3cnn(C)c3)c2)C1 [Example 60, (R)-4-methyl-3-(1-(5-(1-methyl-1H-pyrazol-4-yl)pyridin-3-yl)pyrrolidin-3-yl)-N-(5-(1,1,1-trifluoro-2-methylpropan-2-yl)isoxazol-3-yl)benzamide] | < 5 | < 5
11 | Cc1ccc(C(=O)Nc2cc(C(C)(C)C)no2)cc1[C@@H]1CCN(c2cncc(C(N)=O)c2)C1 [Example 6, (S)-5-(3-(5-((3-(tert-butyl)isoxazol-5-yl)carbamoyl)-2-methylphenyl)pyrrolidin-1-yl)nicotinamide] | < 5 | < 5
12 | Cc1ccc(C(=O)Nc2cncc(C(F)(F)F)c2)cc1[C@@H]1CCN(c2cnccn2)C1 [Example 33, (S)-4-methyl-3-(1-(pyrazin-2-yl)pyrrolidin-3-yl)-N-(5-(trifluoromethyl)pyridin-3-yl)benzamide] | < 5 | < 5
13 | Cc1ccc(C(=O)Nc2cncc(C(F)(F)F)c2)cc1[C@@H]1CCN(c2cn[nH]c2)C1 [Example 100, (S)-3-(1-(1H-pyrazol-4-yl)pyrrolidin-3-yl)-4-methyl-N-(5-(trifluoromethyl)pyridin-3-yl)benzamide] | < 5 | 5 to 25
14 | Cc1ccc(C(=O)Nc2cncc(C(F)(F)F)c2)cc1[C@@H]1CCN(c2cccc(C(N)=O)c2)C1 [Example 66, (S)-3-(1-(3-carbamoylphenyl)pyrrolidin-3-yl)-4-methyl-N-(5-(trifluoromethyl)pyridin-3-yl)benzamide] | 5 to 25 | 25 to 100
15 | Cc1ccc(C(=O)Nc2cc(CN(C)C)nc(C(F)(F)F)c2)cc1[C@@H]1CCN(c2ccnc(C(N)=O)c2)C1 [Example 53, (S)-4-(3-(5-((2-((dimethylamino)methyl)-6-(trifluoromethyl)pyridin-4-yl)carbamoyl)-2-methylphenyl)pyrrolidin-1-yl)picolinamide] | < 5 | 5 to 25

Second part, the compound after the results:

Row | Ki (DDR1) [nM] | Ki (DDR2) [nM] | Compound
16 | < 5 | < 5 | Cc1ccc(C(=O)Nc2cc(C(C)(C)C(F)(F)F)on2)cc1[C@@H]1CCN(c2cnccc2C#N)C1 [Example 55, (S)-3-(1-(4-cyanopyridin-3-yl)pyrrolidin-3-yl)-4-methyl-N-(5-(1,1,1-trifluoro-2-methylpropan-2-yl)isoxazol-3-yl)benzamide]
17 | < 5 | < 5 | Cc1ccc(C(=O)Nc2cc(OC(F)F)ccn2)cc1[C@@H]1CCN(c2cncc(C(N)=O)n2)C1 [Example 51, (S)-6-(3-(5-((4-(difluoromethoxy)pyridin-2-yl)carbamoyl)-2-methylphenyl)pyrrolidin-1-yl)pyrazine-2-carboxamide]
18 | < 5 | < 5 | Cc1ccc(C(=O)Nc2cc(C(F)(F)F)ccn2)cc1[C@@H]1CCN(c2cncnc2)C1 [Example 15, (S)-4-methyl-3-(1-(pyrimidin-5-yl)pyrrolidin-3-yl)-N-(4-(trifluoromethyl)pyridin-2-yl)benzamide]
19 | < 5 | < 5 | Cc1ccc(C(=O)Nc2cc(C(C)(C)C)n(C)n2)cc1[C@@H]1CCN(c2ncnc3ccsc23)C1 [Example 131, (S)-N-(5-(tert-butyl)-1-methyl-1H-pyrazol-3-yl)-4-methyl-3-(1-(thieno[3,2-d]pyrimidin-4-yl)pyrrolidin-3-yl)benzamide]
20 | < 5 | < 5 | Cc1ccc(C(=O)Nc2cncc(C(F)(F)F)c2)cc1[C@@H]1CCN(c2cncc(OCCO)c2)C1 [Example 103, (S)-3-(1-(5-(2-hydroxyethoxy)pyridin-3-yl)pyrrolidin-3-yl)-4-methyl-N-(5-(trifluoromethyl)pyridin-3-yl)benzamide]
21 | < 5 | 5 to 25 | COc1ccc(C(=O)Nc2cncc(C(F)(F)F)c2)cc1C1CCN(c2ccnc(C(N)=O)c2)C1 (stereo not drawn) [Example 64, 4-(3-(2-methoxy-5-((5-(trifluoromethyl)pyridin-3-yl)carbamoyl)phenyl)pyrrolidin-1-yl)picolinamide]
22 | < 5 | 5 to 25 | Cc1ccc(C(=O)Nc2cncc(C(F)(F)F)c2)cc1[C@@H]1CCN(c2cnc3[nH]cc(C(=O)NC4COC4)c3c2)C1 [Example 102, (S)-5-(3-(2-methyl-5-((5-(trifluoromethyl)pyridin-3-yl)carbamoyl)phenyl)pyrrolidin-1-yl)-N-(oxetan-3-yl)-1H-pyrrolo[2,3-b]pyridine-3-carboxamide]
23 | < 5 | < 5 | Cc1ccc(C(=O)Nc2cc(C(C)(C)C)no2)cc1[C@@H]1CCN(c2cncnc2)C1 [Example 19, (S)-N-(3-(tert-butyl)isoxazol-5-yl)-4-methyl-3-(1-(pyrimidin-5-yl)pyrrolidin-3-yl)benzamide]
24 | < 5 | < 5 | Cc1ccc(C(=O)Nc2cc(C(F)F)ccn2)cc1[C@@H]1CCN(c2cncnc2)C1 [Example 67, (S)-N-(4-(difluoromethyl)pyridin-2-yl)-4-methyl-3-(1-(pyrimidin-5-yl)pyrrolidin-3-yl)benzamide]
